Measurements published in article PMC7801313, “Effect of lurbinectedin on the QTc interval in patients with advanced solid tumors: an exposure–response analysis” (Cancer Chemotherapy and Pharmacology, 2020).
In brackets after ≈: the same amount, converted by molar mass. Several values for one entry are separate records, joined by “and”; a condition that tells them apart may be missing. Equal entries are not always repeated. Where two headings read alike, the source gives them in different places.

Tests used:
[1] = cited from earlier work
hERG = system: hERG; set-up: method as in data on file; settings: ref data on file; cited from earlier work
[2] = system: patients with advanced solid tumors; test: concentration-ΔQTcF linear mixed-effects modelling; assay type: in vivo, human
Experimental: C–ΔQTcF was assessed using a linear mixed-effects (LME) model, as proposed by Garnett et al.. As the data available came from a single arm study, the LME model was characterized by the intercept ( θ1 ) and the slope ( θ2 ), and their corresponding variabilities.1 ΔQTcFij=θ1·e^η1,i+θ2·e^η2,i·Cij+θ3·Cycle+ϵij, where Cij is the model-predicted lurbinectedin total plasma concentrations (or the lurbinectedin concentrations in the effect compartment if a hysteresis is present), and η1,i and η2,i are the random effects associated with the intercept term θ1 and the slope term θ2 , respectively, and are assumed to be exponential, independent, and normally distributed. Furthermore, ϵij is the random residual variability, assumed to be an additive, independent, and normally distributed random variable. In the absence of placebo data, the unstructured placebo model consisting on the fixed effect parameters accounting for treatment-specific intercept (TRT), mean ΔQTcF at each time point evaluated (TIME), and baseline QTc was not included in the model. Based on the fact that ECG and PK assessments in this study were performed on two occasions (cycle 1 and cycle 2), the effect of cycle θ3 was also assessed in the models. To select the model for the C-ΔQTcF analysis (i.e., direct or indirect), a potential delay of the ΔQTcF effect relative to plasma concentrations (hysteresis) was graphically and statistically assessed, as proposed by Darpo et al.. To enable an adequate comparison of the model fit between the direct effect model and the effect compartment model, the model-based predicted total plasma concentrations at central compartment (“direct” model) and at the effect compartment (“indirect” model) were used. These were based on the individual PK parameters, obtained through a maximum a posteriori estimation based on the individual total plasma concentration available for each subject and a population PK model previously developed.
The assumption of linearity of the C–ΔQTcF relationship was assessed by goodness-of-fit plots. Besides, a model with an empirical quadratic term of total plasma concentration was fitted and the significance of the quadratic term was tested. In case of the absence of trends in the goodness-of-fit plots and a non-significant quadratic term, the C–∆QTcF relationship was considered linear; otherwise, the relationship was considered non-linear.
The predicted effect of lurbinectedin on ΔQTcF was estimated at the Cmax geometric mean either at the central or at the effect compartment in the first two cycles following the administration of 3.2 mg/m^2 i.v. over 1-h q3wk and was calculated as the estimated intercept ( θ1,Est ) plus the product of the estimated slope ( θ2,Est ) and geometric mean Cmax ( C ):2 EstimatedMeanΔQTcFC=θ1,Est+C×θ2,Est.
Two-sided 90% confidence intervals (CIs) of the estimated ΔQTcF were computed from Eqs. 3 and 4:3 EstimatedSE=varθ1,Est+C^2varθ2,Est+2Ccovθ1,Estθ2,Est 4 90%CI=EstimatedMeanΔQTcC±t0.95,DF×EstimatedSE, where varθ1,Est is the variance of the intercept, varθ2,Est is the variance of the slope, and covθ1,Estθ2,Est is the covariance of intercept and slope; t is the critical value determined from the t-distribution; DF is the degrees of freedom; SE is the standard error; and CI is the confidence interval.
To exclude a prolongation of QT for lurbinectedin assuming that there is no placebo effect, the upper bound (UB) of the 2-sided 90% CI of the model-predicted mean ΔQTcF had to be lower than 10 ms (threshold set at the ICH E14 Q&A R3 [11]), at the Cmax geometric mean obtained after administration of the clinically relevant dose of 3.2 mg/m^2 i.v. over 1-h q3wk.
The Cmax geometric mean either at the central or at the effect compartment, at which UB 90% CI of the model-predicted mean ΔQTcF would be above 10 ms and 20 ms thresholds, was also estimated according to the formulas provided above.

[3] = lurbinectedin plasma pharmacokinetics in the QT evaluation study; assay type: in vivo, human
Experimental: In cycle 1 and cycle 2, the following triplicate ECGs were collected 5–10 min before their time-matched PK time points: 5 min before end of the lurbinectedin infusion (EOI), 30 min, 1, 3, 24, 72 (only on cycle 1), and 168 h after EOI.
Pharmacokinetic (PK) profiles of lurbinectedin were obtained on cycle 1 and cycle 2. Following ECGs’ acquisition, blood samples were collected into K3EDTA tubes. Tubes were gently inverted several times and centrifuged at 2000 × g for 10 min at 4 °C to separate the plasma.
Plasma concentrations of lurbinectedin were measured by a validated liquid chromatography–mass spectrometry assay (Dynakin S.L., Spain), with ranges of 0.1–50 µg/L. The within- and between-day precisions ranged from 2.7 to 12.9% and from 5.1 to 10.7%, respectively. The within- and between-day accuracy (bias) ranged from 10 to 12% and from 5 to 6%, respectively.
Datasets were prepared using SAS Enterprise Guide v.7.11 HF3 (SAS Institute Inc., Cary, NC, USA). Non-compartmental PK parameters were determined using Phoenix WinNonlin v.6.3 (Certara, USA). Non-linear mixed-effect modelling was performed in NONMEM v.7.3.0 (GloboMax LLC, Hanover, MD, USA). Graphical and all other statistical analyses were performed in R v.3.2.5 (R Foundation for Statistical Computing, Vienna, Austria).

In the case of COc1ccc2[nH]c3c(c2c1)CCN[C@]31CS[C@@H]2c3c(OC(C)=O)c(C)c4c(c3[C@H](COC1=O)N1[C@@H]2[C@H]2c3c(cc(C)c(OC)c3O)C[C@@H]([C@@H]1O)N2C)OCO4 [lurbinectedin, Lurbinectedin], the “population estimate for total plasma clearance” value ([1]; 1-h i.v. infusion, cancer patients) is given as 11.2 L/h, the extraction ratio [1] is given as 0.19 and the “inter-individual variability of all PK parameters” value [1] is given as 20.9 to 51.2%. The “population estimate of apparent volume at steady state” value [1] was 438 L and 438.4 L, the reduction of clearance ([1]; co-administration of CYP3A inhibitors) was 30% and the “blood CL” value ([1]; corresponding to plasma clearance) was ~ 17 L/h. For the same molecule, the reduction of clearance ([1]; high C-reactive protein) was 20%, the reduction of clearance ([1]; high α-1-acid glycoprotein) was 28% and the reduction of clearance ([1]; low albumin) was 20%. For the same molecule, the IC50 (hERG) was 8.8 µM, the “IC50 hERG” value (hERG) was 6.9 µg/mL (≈ 8.79 µM) and the “Cmax at the effect compartment associated with 10 ms UB 90% CI of ΔQTcF” value ([2]; delayed effect model) was 36.18 ng/mL. The “Cmax at the effect compartment associated with 20 ms UB 90% CI of ΔQTcF” value ([2]; delayed effect model) was 61.94 ng/mL, the “dose corresponding to 10 ms UB 90% CI of ΔQTcF” value ([2]; delayed effect model) was 3.8 mg/m^2 and the “dose corresponding to 20 ms UB 90% CI of ΔQTcF” value ([2]; delayed effect model) was 6.5 mg/m^2. The “fold increase over recommended dose Cmax at 10 ms threshold” value ([2]; delayed effect model) was 1.21 fold, the “fold increase over recommended dose Cmax at 20 ms threshold” value ([2]; delayed effect model) was 2.03 fold and the “Cmax associated with 10 ms UB 90% CI of ΔQTcF” value ([2]; direct effect model) was 129.05 ng/mL. The “Cmax associated with 20 ms UB 90% CI of ΔQTcF” value ([2]; direct effect model) was 241.25 ng/mL, the “dose corresponding to 10 ms UB 90% CI of ΔQTcF” value ([2]; direct effect model) was 3.6 mg/m^2 and the “dose corresponding to 20 ms UB 90% CI of ΔQTcF” value ([2]; direct effect model) was 6.6 mg/m^2. For the same molecule, the “Cmax (central compartment)” value ([2]; direct effect model, recommended dose) was 116.62 ng/mL, the “Slope of C-ΔQTcF” value ([2]; final delayed effect (effect compartment) model) was 0.289 L·ms/µg and the “Keo, equilibration rate constant” value ([2]; final delayed effect model) was 0.298 h⁻¹. The “Slope of C-ΔQTcF” value ([2]; final direct model) was 0.072 L·ms/µg, the “observed lurbinectedin concentration, mean (Stdv)” value ([3]; Cycle 1, 0.92 h after start of infusion (Cmax)) was 106.02 (54.52) µg/L and the “observed lurbinectedin concentration, mean (Stdv)” value ([3]; Cycle 1, 1.5 h after start of infusion) was 40.01 (24.35) µg/L. The “observed lurbinectedin concentration, mean (Stdv)” value ([3]; Cycle 1, 2 h after start of infusion) was 27.22 (14.05) µg/L, the “observed lurbinectedin concentration, mean (Stdv)” value ([3]; Cycle 1, 4 h after start of infusion) was 17.86 (8.07) µg/L and the “observed lurbinectedin concentration, mean (Stdv)” value ([3]; Cycle 1, 25 h after start of infusion) was 3.84 (1.87) µg/L. For the same molecule, the “observed lurbinectedin concentration, mean (Stdv)” value ([3]; Cycle 1, 73 h after start of infusion) was 1.53 (1.13) µg/L, the “observed lurbinectedin concentration, mean (Stdv)” value ([3]; Cycle 1, 169 h after start of infusion) was 0.51 (0.45) µg/L and the “observed lurbinectedin concentration, mean (Stdv)” value ([3]; Cycle 2, 0.92 h after start of infusion (Cmax)) was 136.60 (145.04) µg/L. The “observed lurbinectedin concentration, mean (Stdv)” value ([3]; Cycle 2, 2 h after start of infusion) was 28.22 (16.84) µg/L, the “observed lurbinectedin concentration, mean (Stdv)” value ([3]; Cycle 2, 4 h after start of infusion) was 18.82 (10.94) µg/L and the “observed lurbinectedin concentration, mean (Stdv)” value ([3]; Cycle 2, 169 h after start of infusion) was 0.56 (0.57) µg/L. For the same molecule, the Tmax ([3]; cycle 1) was 0.92 h, the “mean clearance (non-compartmental)” value ([3]; cycle 1, 39 patients) was 11.8 L/h and the “mean volume of distribution (non-compartmental)” value ([3]; cycle 1, 39 patients) was 347.7 L. The Tmax ([3]; cycle 2) was 4 h.
